Experimental data: PMC9090415, “Discovery of small molecule inhibitors of Plasmodium falciparum apicoplast DNA polymerase” (Journal of Enzyme Inhibition and Medicinal Chemistry, 2022)

Biological target: P. falciparum apicoplast DNA polymerase (Pf-apPOL) (Plasmodium falciparum, UniProt Q8ILY1)
Assay: Fluorescence-based high-throughput DNA polymerase assay (molecular beacon), primary screen and dose-response
Type: biochemical
Settings: for DNA Pol: 90 min, 10 µM; for % inhibition apPOL 180' 2.5 / % inhibition apPOL 180' 5 / % inhibition apPOL 180' 10 / % inhibition apPOL 180' 20 / % inhibition apPOL 180' 40 / % inhibition apPOL 180' 80: read at 180'
Method in brief: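 Single-point screening used 10 µM compound with 20 nM polymerase, 20 nM hairpin substrate and 6 µM dNTPs for 90 min at 25 °C. Confirmatory titrations (2.5–80 µM) followed fluorescence at three times, and IC50 was derived from a fit including a cooperativity term n.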

Sequence of P. falciparum apicoplast DNA polymerase (Pf-apPOL) (Q8ILY1 entry or part of it): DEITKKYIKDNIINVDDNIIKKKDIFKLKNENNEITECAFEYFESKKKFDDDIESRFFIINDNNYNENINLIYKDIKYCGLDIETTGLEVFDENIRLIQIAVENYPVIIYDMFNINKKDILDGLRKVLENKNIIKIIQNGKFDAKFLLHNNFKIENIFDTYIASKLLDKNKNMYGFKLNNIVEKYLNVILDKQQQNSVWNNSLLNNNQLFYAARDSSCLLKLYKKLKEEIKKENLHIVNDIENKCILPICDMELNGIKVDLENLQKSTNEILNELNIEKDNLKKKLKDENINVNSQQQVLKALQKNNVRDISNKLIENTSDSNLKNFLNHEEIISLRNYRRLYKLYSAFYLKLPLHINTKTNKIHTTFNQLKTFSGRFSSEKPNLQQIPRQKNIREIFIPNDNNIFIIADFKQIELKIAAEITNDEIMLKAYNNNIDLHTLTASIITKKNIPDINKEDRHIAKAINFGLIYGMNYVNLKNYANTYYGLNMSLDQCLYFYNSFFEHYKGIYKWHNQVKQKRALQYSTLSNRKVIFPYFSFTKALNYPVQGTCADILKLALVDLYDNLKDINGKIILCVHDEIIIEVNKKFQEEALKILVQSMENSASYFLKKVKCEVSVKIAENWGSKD

For Cc1nc(C)c2c(n1)N(CC1CCCCC1)C(=O)CC2 [KU0218606], the “DNA Pol” value (186 hits, DNA Pol (screen value), unit not given) was 50, the “DNA Pol” value ('DNA Pol' (screen value), unit not given) was 50 and the “% inhibition Apo pol 10' 2.5” value (DRC-1, read at 10', concentration 2.5) was 34.0428%. For the same compound, the “% inhibition Apo pol 10' 5” value (DRC-1, read at 10', concentration 5) was 39.9001%, the “% inhibition Apo pol 10' 10” value (DRC-1, read at 10', concentration 10) was 47.3749% and the “% inhibition Apo pol 10' 20” value (DRC-1, read at 10', concentration 20) was 48.9825%. The “% inhibition Apo pol 10' 40” value (DRC-1, read at 10', concentration 40) was 54.7667%, the “% inhibition Apo pol 10' 80” value (DRC-1, read at 10', concentration 80) was 55.4322% and the “% inhibition Apol 90' 2.5” value (DRC-1, read at 90', concentration 2.5) was 24.6813%. The “% inhibition Apol 90' 5” value (DRC-1, read at 90', concentration 5) was 31.9392%, the “% inhibition Apol 90' 10” value (DRC-1, read at 90', concentration 10) was 42.478% and the “% inhibition Apol 90' 20” value (DRC-1, read at 90', concentration 20) was 47.74%. For the same compound, the “% inhibition Apol 90' 40” value (DRC-1, read at 90', concentration 40) was 54.1171%, the “% inhibition Apol 90' 80” value (DRC-1, read at 90', concentration 80) was 56.5278% and the “% inhibition apPOL 180' 2.5” value (DRC-1, concentration 2.5) was 16.0854%. The “% inhibition apPOL 180' 5” value (DRC-1, concentration 5) was 24.5851%, the “% inhibition apPOL 180' 10” value (DRC-1, concentration 10) was 35.963% and the “% inhibition apPOL 180' 20” value (DRC-1, concentration 20) was 43.6778%. The “% inhibition apPOL 180' 40” value (DRC-1, concentration 40) was 53.1041%, the “% inhibition apPOL 180' 80” value (DRC-1, concentration 80) was 57.3534% and the “% inhibition Apo pol 5'” value (DRC-2, concentration 5) was 24%. The “% inhibition Apo pol 5'” value (DRC-2, concentration 20) was 27%, the “% inhibition Apo pol 5'” value (DRC-2, concentration 40) was 30% and the “% inhibition Apo pol 5'” value (DRC-2, concentration 80) was 27%. For the same compound, the “% inhibition Apol 40'” value (DRC-2, concentration 2.5) was 24%, the “% inhibition Apol 40'” value (DRC-2, concentration 5) was 30% and the “% inhibition Apol 40'” value (DRC-2, concentration 40) was 42%. For the same compound, the “% inhibition ApPOL 90'” value (DRC-2, concentration 10) was 38%, the “% inhibition ApPOL 90'” value (DRC-2, concentration 20) was 42% and the “% inhibition apPOL 180'” value (DRC-2, concentration 20) was 38%. For the same compound, the “% inhibition apPOL 180'” value (DRC-2, concentration 40) was 42%, the “% inhibition Apo pol 5' 2.5” value (DRC-2, read at 5', concentration 2.5) was 20% and the “% inhibition Apo pol 5' 5” value (DRC-2, read at 5', concentration 5) was 24%. The “% inhibition Apo pol 5' 10” value (DRC-2, read at 5', concentration 10) was 28%, the “% inhibition Apo pol 5' 20” value (DRC-2, read at 5', concentration 20) was 27% and the “% inhibition Apo pol 5' 40” value (DRC-2, read at 5', concentration 40) was 30%. For the same compound, the “% inhibition Apo pol 5' 80” value (DRC-2, read at 5', concentration 80) was 27%, the “% inhibition Apol 40' 2.5” value (DRC-2, read at 40', concentration 2.5) was 24% and the “% inhibition Apol 40' 5” value (DRC-2, read at 40', concentration 5) was 30%. For the same compound, the “% inhibition Apol 40' 10” value (DRC-2, read at 40', concentration 10) was 36%, the “% inhibition Apol 40' 20” value (DRC-2, read at 40', concentration 20) was 39% and the “% inhibition Apol 40' 40” value (DRC-2, read at 40', concentration 40) was 42%. The “% inhibition Apol 40' 80” value (DRC-2, read at 40', concentration 80) was 41%, the “% inhibition ApPOL 90' 2.5” value (DRC-2, read at 90', concentration 2.5) was 25% and the “% inhibition ApPOL 90' 5” value (DRC-2, read at 90', concentration 5) was 31%. For the same compound, the “% inhibition ApPOL 90' 10” value (DRC-2, read at 90', concentration 10) was 38%, the “% inhibition ApPOL 90' 20” value (DRC-2, read at 90', concentration 20) was 42% and the “% inhibition ApPOL 90' 40” value (DRC-2, read at 90', concentration 40) was 45%. For the same compound, the “% inhibition ApPOL 90' 80” value (DRC-2, read at 90', concentration 80) was 47%, the “% inhibition apPOL 180' 2.5” value (DRC-2, concentration 2.5) was 18% and the “% inhibition apPOL 180' 5” value (DRC-2, concentration 5) was 26%. For the same compound, the “% inhibition apPOL 180' 10” value (DRC-2, concentration 10) was 34%, the “% inhibition apPOL 180' 20” value (DRC-2, concentration 20) was 38% and the “% inhibition apPOL 180' 40” value (DRC-2, concentration 40) was 42%. For the same compound, the “% inhibition apPOL 180' 80” value (DRC-2, concentration 80) was 46%.

With Cl.NC(CO)C(=O)NNCc1ccc(O)c(O)c1O (stereo not drawn) [KU0260493] the “DNA Pol” value ('DNA Pol' of the 186 hits list (primary screen value)) was 84, the “DNA Pol” value (DNA Pol (primary screen value)) was 84 and the “% inhibition Apo pol 10'” value (DRC-1, concentration 2.5) was 2.4672%. The “% inhibition Apo pol 10'” value (DRC-1, concentration 5) was 2.015%, the “% inhibition Apo pol 10'” value (DRC-1, concentration 10) was 15.4444% and the “% inhibition Apo pol 10'” value (DRC-1, concentration 20) was 26.1922%. For the same compound, the “% inhibition Apo pol 10'” value (DRC-1, concentration 40) was 36.4325%, the “% inhibition Apo pol 10'” value (DRC-1, concentration 80) was 40.9646% and the “% inhibition Apol 90'” value (DRC-1, concentration 2.5) was -5.483%. For the same compound, the “% inhibition Apol 90'” value (DRC-1, concentration 5) was -0.705%, the “% inhibition Apol 90'” value (DRC-1, concentration 10) was 31.8192% and the “% inhibition Apol 90'” value (DRC-1, concentration 20) was 46.4998%. The “% inhibition Apol 90'” value (DRC-1, concentration 40) was 57.8018%, the “% inhibition Apol 90'” value (DRC-1, concentration 80) was 63.3107% and the “% inhibition apPOL 180'” value (DRC-1, concentration 2.5) was -3.278%. For the same compound, the “% inhibition apPOL 180'” value (DRC-1, concentration 5) was 12.5243%, the “% inhibition apPOL 180'” value (DRC-1, concentration 10) was 43.7705% and the “% inhibition apPOL 180'” value (DRC-1, concentration 20) was 57.9843%. The “% inhibition apPOL 180'” value (DRC-1, concentration 40) was 66.1218%, the “% inhibition apPOL 180'” value (DRC-1, concentration 80) was 68.6937% and the “% inhibition Apo pol 5'” value (DRC-2, concentration 2.5) was -5.63%. For the same compound, the “% inhibition Apo pol 5'” value (DRC-2, concentration 5) was 3.49%, the “% inhibition Apo pol 5'” value (DRC-2, concentration 10) was 23% and the “% inhibition Apo pol 5'” value (DRC-2, concentration 20) was 36%. The “% inhibition Apo pol 5'” value (DRC-2, concentration 40) was 47%, the “% inhibition Apo pol 5'” value (DRC-2, concentration 80) was 54% and the “% inhibition Apol 40'” value (DRC-2, concentration 2.5) was -1.63%. The “% inhibition Apol 40'” value (DRC-2, concentration 5) was 15%, the “% inhibition Apol 40'” value (DRC-2, concentration 10) was 38% and the “% inhibition Apol 40'” value (DRC-2, concentration 20) was 53%. The “% inhibition Apol 40'” value (DRC-2, concentration 40) was 62%, the “% inhibition Apol 40'” value (DRC-2, concentration 80) was 65% and the “% inhibition ApPOL 90'” value (DRC-2, concentration 2.5) was 1.48%. For the same compound, the “% inhibition ApPOL 90'” value (DRC-2, concentration 5) was 22%, the “% inhibition ApPOL 90'” value (DRC-2, concentration 10) was 45% and the “% inhibition ApPOL 90'” value (DRC-2, concentration 20) was 60%. For the same compound, the “% inhibition ApPOL 90'” value (DRC-2, concentration 40) was 67%, the “% inhibition ApPOL 90'” value (DRC-2, concentration 80) was 68% and the “% inhibition apPOL 180'” value (DRC-2, concentration 2.5) was 11%. The “% inhibition apPOL 180'” value (DRC-2, concentration 5) was 32%, the “% inhibition apPOL 180'” value (DRC-2, concentration 10) was 53% and the “% inhibition apPOL 180'” value (DRC-2, concentration 20) was 67%. For the same compound, the “% inhibition apPOL 180'” value (DRC-2, concentration 40) was 71% and the “% inhibition apPOL 180'” value (DRC-2, concentration 80) was 72%.
